{
  "source": "paper doi:10.1101/2023.07.01.547317v1",
  "about": "(biorxiv, 2023)",
  "biological_target": "MoIcl1 (Pyricularia oryzae, UniProt P0CT06)",
  "sequence (P0CT06 whole entry, looked up)": "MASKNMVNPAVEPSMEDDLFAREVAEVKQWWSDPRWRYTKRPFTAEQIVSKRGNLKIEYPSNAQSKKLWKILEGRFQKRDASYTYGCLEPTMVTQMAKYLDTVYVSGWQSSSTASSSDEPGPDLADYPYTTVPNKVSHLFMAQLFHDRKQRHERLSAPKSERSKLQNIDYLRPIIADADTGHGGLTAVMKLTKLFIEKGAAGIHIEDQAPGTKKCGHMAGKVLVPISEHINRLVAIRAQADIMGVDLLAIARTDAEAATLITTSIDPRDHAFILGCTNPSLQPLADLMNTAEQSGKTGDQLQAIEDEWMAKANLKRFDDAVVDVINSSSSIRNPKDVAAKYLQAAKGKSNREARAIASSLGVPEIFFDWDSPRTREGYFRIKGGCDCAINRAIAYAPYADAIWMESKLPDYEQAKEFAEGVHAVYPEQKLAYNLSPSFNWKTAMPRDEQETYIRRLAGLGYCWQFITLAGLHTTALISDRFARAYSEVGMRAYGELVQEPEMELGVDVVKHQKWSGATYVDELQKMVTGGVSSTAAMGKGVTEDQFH",
  "experiment": "biochemical",
  "format": "binding",
  "data": [
    {"compound": "COc1ccc2[nH]cc(CCNC(C)=O)c2c1", "note": "[melatonin, N-acetyl-5-methoxytryptamine]", "values": [
      {"measurement": "Kd", "result": 287, "unit": "µM"}
    ]}
  ]
}
